Values joined by “and” are separate entries in the source; they are usually repeats but may differ in a detail not shown here. Equal entries are not always repeated. Inconclusive results and toxic doses are left out. No stated cut-off is given here; in the data, active means T/C of 150% or more; inactive means T/C below 125%.
System: L1210 leukemia ip in BDF1 mice, survival T/C
Assay: NCI In Vivo Anticancer Drug Screen. Data for tumor model L1210 Leukemia (intraperitoneal) in B6D2F1 (BDF1) mice
Details: endpoint: mean survival time, higher = longer survival
Method in brief: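 Mice bearing the transplanted tumor received compound or vehicle. Survival of the treated group was divided by that of the vehicle-treated control group to give the ratio.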

[1] = dose: 100.0 mg/kg/injection, schedule: Q04DX003 (ip), vehicle: saline with Tween-80
[2] = dose: 200.0 mg/kg/injection, schedule: Q04DX003 (ip), vehicle: saline with Tween-80
[3] = dose: 400.0 mg/kg/injection, schedule: Q04DX003 (ip), vehicle: saline with Tween-80
[4] = dose: 75.0 mg/kg/injection, schedule: Q04DX003 (ip), vehicle: saline
[5] = dose: 150.0 mg/kg/injection, schedule: Q04DX003 (ip), vehicle: saline
[6] = dose: 300.0 mg/kg/injection, schedule: Q04DX003 (ip), vehicle: saline
[7] = dose: 100.0 mg/kg/injection, schedule: Q01DX009 (ip), vehicle: Klucel (hydroxypropylcellulose) (HPC)
[8] = dose: 200.0 mg/kg/injection, schedule: Q01DX009 (ip), vehicle: Klucel (hydroxypropylcellulose) (HPC)
[9] = dose: 400.0 mg/kg/injection, schedule: Q01DX009 (ip), vehicle: Klucel (hydroxypropylcellulose) (HPC)
[10] = dose: 50.0 mg/kg/injection, schedule: Q01DX009 (ip), vehicle: saline
[11] = dose: 100.0 mg/kg/injection, schedule: Q04DX003 (ip), vehicle: saline
[12] = dose: 200.0 mg/kg/injection, schedule: Q01DX009 (ip), vehicle: saline
[13] = dose: 200.0 mg/kg/injection, schedule: Q04DX003 (ip), vehicle: saline
[14] = dose: 100.0 mg/kg/injection, schedule: Q04DX003 (ip), vehicle: Klucel (hydroxypropylcellulose) (HPC)
[15] = dose: 200.0 mg/kg/injection, schedule: Q04DX003 (ip), vehicle: Klucel (hydroxypropylcellulose) (HPC)
[16] = dose: 400.0 mg/kg/injection, schedule: Q04DX003 (ip), vehicle: Klucel (hydroxypropylcellulose) (HPC)
[17] = dose: 100.0 mg/kg/injection, schedule: Q01DX009 (ip), vehicle: saline
[18] = dose: 12.5 mg/kg/injection, schedule: Q01DX009 (ip), vehicle: Klucel (hydroxypropylcellulose) (HPC)
[19] = dose: 25.0 mg/kg/injection, schedule: Q01DX009 (ip), vehicle: Klucel (hydroxypropylcellulose) (HPC)
[20] = dose: 50.0 mg/kg/injection, schedule: Q01DX009 (ip), vehicle: Klucel (hydroxypropylcellulose) (HPC)
[21] = dose: 100.0 mg/kg/injection, schedule: Q01DX009 (ip), vehicle: saline with Tween-80
[22] = dose: 200.0 mg/kg/injection, schedule: Q01DX009 (ip), vehicle: saline with Tween-80
[23] = dose: 400.0 mg/kg/injection, schedule: Q01DX009 (ip), vehicle: saline with Tween-80

Measured: T/C

CCn1nnc2c(=O)[nH]c(N)nc21
inactive: [1] 105 % of control | [2] 104 % of control | [3] 94 % of control

OCCNCc1ccc2ccccc2n1
inactive: [4] 96 % of control | [5] 100 % of control | [6] 96 % of control

C=CCCOC(C)=O
inactive: [4] 96 % of control | [7] 107 % of control | [5] 100 % of control | [8] 97 % of control | [6] 100 % of control | [9] 100 % of control

Cc1nc(CON)cs1
inactive: [10] 92 % of control | [11] 100 % of control | [12] 90 % of control | [13] 92 % of control

CCCCCCCCCCCCCCCCS(=O)(=O)c1ccccc1NC(N)=O
inactive: [14] 97 % of control | [15] 98 % of control | [16] 95 % of control

N#CC(c1ccc(Cl)cc1)c1ccc(N(CCO)CCO)cc1 (stereo unspecified)
inactive: dose: 100.0 mg/kg/injection, schedule: Q01DX001 (ip), vehicle: saline 99 % of control | dose: 100.0 mg/kg/injection, schedule: Q04DX003 (ip), vehicle: acetone 103 % of control | dose: 200.0 mg/kg/injection, schedule: Q01DX001 (ip), vehicle: saline 99 % of control | dose: 200.0 mg/kg/injection, schedule: Q04DX003 (ip), vehicle: acetone 97 % of control | dose: 400.0 mg/kg/injection, schedule: Q01DX001 (ip), vehicle: saline 86 % of control | dose: 400.0 mg/kg/injection, schedule: Q04DX003 (ip), vehicle: acetone 91 % of control

COCC(O)CN1CCN(c2ccccc2C)CC1 (stereo unspecified)
inactive: dose: 25.0 mg/kg/injection, schedule: Q01DX009 (ip), vehicle: saline 108 % of control | [10] 93 % of control | [17] 100 % of control

CCCC/C(=N\OP(=O)(OCC)OCC)c1ccccc1
inactive: dose: 75.0 mg/kg/injection, schedule: Q01DX001 (ip), vehicle: saline 101 % of control | dose: 150.0 mg/kg/injection, schedule: Q01DX001 (ip), vehicle: saline 107 % of control | dose: 300.0 mg/kg/injection, schedule: Q01DX001 (ip), vehicle: saline 91 % of control

C=C(C)COc1c(C)c(C)c(OCC(=C)C)c(C)c1C
inactive: dose: 100.0 mg/kg/injection, schedule: Q01DX001 (ip), vehicle: DMSO 89 % of control | dose: 400.0 mg/kg/injection, schedule: Q01DX001 (ip), vehicle: DMSO 94 % of control

CCCCNC(=O)c1ccccc1-c1ccccc1C(=O)NCCCC
inactive: dose: 100.0 mg/kg/injection, schedule: Q01DX001 (ip), vehicle: other 105 % of control | dose: 200.0 mg/kg/injection, schedule: Q01DX001 (ip), vehicle: other 97 % of control

CC1(C)N=C(N)N=C(N)N1c1ccccc1I
inactive: [18] 100 % of control | [19] 110 % of control | [20] 97 % of control

CCOC(=O)c1cc2ccccc2c2ccccc12
inactive: [1] 98 % of control | [2] 95 % of control | [3] 98 % of control

O=C1CN=C(c2ccccn2)c2cc(Cl)ccc2N1CCO
inactive: [21] 106 % of control | [1] 96 % of control | [22] 101 % of control | [2] 112 % of control | [23] 98 % of control | [3] 91 % of control

N#CC=P(c1ccccc1)(c1ccccc1)c1ccccc1
inactive: [10] 87 % of control

O=[N+]([O-])c1ccc([N+](=O)[O-])c(Cl)c1
inactive: [20] 101 % of control | [7] 95 % of control | [1] 97 % of control | [2] 86 % of control

OCc1ccccc1
inactive: [21] 105 % of control | [14] 100 % of control | [22] 102 % of control | [15] 101 % of control | [23] 96 % of control | [16] 98 % of control

O=c1[nH]cnc2ccnn12
inactive: [10] 104 % of control | [17] 107 % of control | [11] 97 % of control | [13] 92 % of control

CN=C(NCc1ccccc1)c1ccc(NC(=O)c2ccc(C(=O)Nc3ccc(C(=NC)NCc4ccccc4)cc3)cc2)cc1
inactive: dose: 1.9 mg/kg/injection, schedule: Q01DX Z (ip), vehicle: methylcellulose (MC) 97 % of control | dose: 3.8 mg/kg/injection, schedule: Q01DX Z (ip), vehicle: methylcellulose (MC) 108 % of control | dose: 7.5 mg/kg/injection, schedule: Q01DX Z (ip), vehicle: methylcellulose (MC) 93 % of control

O=C(N/N=C/c1ccccc1Cl)c1ccccc1NC(=O)C1CC1
inactive: [7] 97 % of control | [8] 98 % of control | [9] 101 % of control

CC(O)C[As](=O)(O)c1ccccc1 (stereo unspecified)
inactive: dose: 12.5 mg/kg/injection, schedule: Q04DX002 (ip), vehicle: saline 103 % of control | dose: 25.0 mg/kg/injection, schedule: Q04DX002 (ip), vehicle: saline 100 % of control

CCOc1ccccc1NC(=S)NC(=O)CCc1ccccc1
inactive: [21] 102 % of control and 104 % of control | dose: 100.0 mg/kg/injection, schedule: Q04DX002 (ip), vehicle: saline with Tween-80 104 % of control | [1] 105 % of control | [22] 93 % of control and 108 % of control | dose: 200.0 mg/kg/injection, schedule: Q04DX002 (ip), vehicle: saline with Tween-80 98 % of control | [2] 97 % of control | [23] 97 % of control and 89 % of control | dose: 400.0 mg/kg/injection, schedule: Q04DX002 (ip), vehicle: saline with Tween-80 91 % of control | [3] 89 % of control

COc1ccc([N+](=O)[O-])cc1CN(C)C(C)C
inactive: [18] 97 % of control | dose: 12.5 mg/kg/injection, schedule: Q04DX003 (ip), vehicle: Klucel (hydroxypropylcellulose) (HPC) 97 % of control | [19] 97 % of control | dose: 25.0 mg/kg/injection, schedule: Q04DX003 (ip), vehicle: Klucel (hydroxypropylcellulose) (HPC) 100 % of control | [20] 92 % of control | dose: 50.0 mg/kg/injection, schedule: Q04DX003 (ip), vehicle: Klucel (hydroxypropylcellulose) (HPC) 97 % of control

COC(=O)CCC1([N+](=O)[O-])CCCCC1
inactive: dose: 16.5 mg/kg/injection, schedule: Q01DX009 (ip), vehicle: saline with Tween-80 96 % of control | dose: 25.0 mg/kg/injection, schedule: Q01DX009 (ip), vehicle: saline with Tween-80 94 % of control | dose: 25.0 mg/kg/injection, schedule: Q04DX003 (ip), vehicle: saline with Tween-80 100 % of control | dose: 37.5 mg/kg/injection, schedule: Q01DX009 (ip), vehicle: saline with Tween-80 99 % of control | dose: 50.0 mg/kg/injection, schedule: Q01DX009 (ip), vehicle: saline with Tween-80 100 % of control | dose: 50.0 mg/kg/injection, schedule: Q04DX003 (ip), vehicle: saline with Tween-80 102 % of control | [21] 94 % of control | [1] 105 % of control

N#CS
inactive: [10] 102 % of control | [17] 95 % of control | [12] 98 % of control
